According to patent US8598184B2, “Protein kinase inhibitors” (Tiger Pharmatech, priority 2008, dated 2013):
Where “and” joins values, the source holds several entries; their conditions need not be identical. Equal values may be shown once. Read-outs that look alike come from different tables or passages of the source.

What was measured:
[1] = In vivo pharmacokinetics study in rats, intravenous and oral administration; parameters: species or system male Sprague Dawley rats
Description: The compounds of the present invention were formulated as a solution in a 30:70 (PEG 400:acidified H2O) vehicle. This solution was administered orally (p.o.) at 10 mg/kg and intravenously (i.v.) at 2.5 mg/kg to two distinct groups (n=3) of male Sprague Dawley rats (body weight of 220-250 g). The animals used in the oral dosing group were fasted for 12 hrs before the drug administration. The blood samples were collected via retro-orbital puncture at 0 hour (pre-dose), 0.083, 0.25, 0.5, 1, 2, 4, 6, 8, and 24 hours post-dose. The blood plasma was isolated and HPLC was performed to determine the concentration of the test compounds in blood plasma. Standard set of pharmacokinetic parameters including Area Under the Curves (AUC's), elimination half-lives and bioavailabilities etc. were calculated using FDA certified pharmacokinetic program WinNonlin Professional v5.2 (Pharsight, USA).
The bioavailability was calculated as F (%)=(Doseiv×AUCoral(0-∞))/(Doseoral×AUCiv(0-∞))100%. The plasma concentration-time curve of example 5 in male rats following intravenous and oral administration was shown in FIG. 1. Selected pharmacokinetics parameters of example 5 in male rats following intravenous and oral administration were listed in Table 2.

[2] = tested on: U87MG glioblastoma tumor xenograft; details: for tumor growth inhibition: Day 12, vs vehicle-treated controls
Description: The U87MG glioblastoma cell line (obtained from Institute of Biochemistry and Cell Biology, Shanghai Institutes for Biological Sciences) expresses the c-Met receptor and responds to […] (HGF). […] The study utilized a tumor growth inhibition (TGI) assay to test per os (p.o.) compound monotherapy in groups of eight nude mice. A control group was treated with a 30:70 (PEG 400:acidified H2O) vehicle. All treatments began on Day 1 (D1) in mice bearing established subcutaneous (s.c.) U87MG tumors.
Female athymic nude mice (BALB/cA, Shanghai Laboratories Animal Center, Shanghai, China) were 7-8 weeks old with a body weight range of 19-21 g at the beginning of the study. Food and water were available ad libitum throughout the study. Mice were housed in SPF (Specific Pathogen Free) area of Medicilon/MPI animal facility. Environmental control for the animal room was set to maintain a temperature of 18-25° C., humidity of 30-70%, and a 12-hour light/12-hour dark cycle. Animals had previously been acclimated to study procedures prior to initial dose administration. Animals to be used on test were selected based on overall health and acclimation to caging.
U-87 MG human glioblastoma cells were purchased from Institute of Biochemistry and Cell Biology, Shanghai Institutes for Biological Sciences. The cells were maintained in vitro Eagle's Minimum Essential Medium supplemented with 10% heat inactivated fetal calf serum. Cells were cultured at 37° C. in an atmosphere of 5% CO2 in air and routinely sub-cultured twice weekly by trypsin-EDTA treatment. Cells in an exponential growth phase were harvested and counted for tumor inoculation. Each test mouse was subcutaneously inoculated with 1×10^7 U87-MG tumor cells in 0.1 ml medium at the right flank of the mouse for tumor model development. During the experiment, the implanted tumors were measured by external caliper every other day in a blind fashion. Nine days later, on Day 1 of the study, mice with well-established tumors (about 150 mm^3) were randomly assigned into 4 groups (n=8 mice/group). Tumor volume was calculated using the formula: Tumor Volume=w^2×l/2 where w=width and l=length in mm of the tumor. Tumor weight may be estimated with the assumption that 1 mg is equivalent to 1 mm^3 of tumor volume.
In all groups, the dosing volume of 0.2 mL/20 g mouse was scaled to the body weight of each animal
The MTV (n) is defined as the median tumor volume (MTV) for the number of animals, n, remaining in the study on that day. The Median Tumor Growth Volume=Median Tumor Volume−Median Tumor Volumeinitial.
Tumor growth was plotted as the median tumor volume, versus time, for each group in the study. The differences in the tumor size between the treatment groups and the vehicle group are analyzed for significance using the unpaired two-tailed Student's t-test. P<0.05 is considered to be statistically significant.

[3] = male rats, IV 2.5 mg/kg, individual animals R 1-R 3
[4] = male rats, PO 10 mg/kg, fasted, individual animals R 4-R 6
[5] = male, Sprague Dawley, rat, plasma, iv, 2.5 mg/kg, IV 2.5 mg/kg, individual animals R 1-R 3
[6] = male, Sprague Dawley, rat, plasma, iv, 2.5 mg/kg, IV 2.5 mg/kg, mean (n=3)
[7] = male, Sprague Dawley, rat, plasma, po, 10 mg/kg, PO 10 mg/kg, fasted, individual animals R 4-R 6
[8] = male, Sprague Dawley, rat, plasma, po, 10 mg/kg, PO 10 mg/kg, fasted, mean (n=3)

OCCn1cc(-c2ncc3nnn(Cc4ccc5ncccc5c4)c3n2)cn1 [Example 5, 2-(4-(3-(Quinolin-6-ylmethyl)-3H-[1,2,3]triazolo[4,5-d]pyrimidin-5-yl)-1H-pyrazol-1-yl)ethanol]
Tmax ([1]; Sprague Dawley, rat, plasma, male rats, IV 2.5 mg/kg, individual animals R 1-R 3): 0.08 h | Tmax ([1]; Sprague Dawley, rat, plasma, male rats, PO 10 mg/kg, fasted, individual animals R 4-R 6): 2 h | AUC(0-t) [1, 3]: 5472.46 ng·h/mL and 3451.75 ng·h/mL and 7274.77 ng·h/mL | AUC(0-∞) [1, 3]: 3741.58 ng·h/mL and 7310.08 ng·h/mL | Cmax [1, 3]: 2417.88 ng/mL and 3019.57 ng/mL | t1/2 [1, 3]: 2.59 h and 3.23 h | F % (bioavailability) ([1]; male rats, PO 10 mg/kg vs IV 2.5 mg/kg, individual animals R 4-R 6): 70.36% and 72.63% | AUC(0-t) [1, 4]: 15454.20 ng·h/mL and 15954.84 ng·h/mL | AUC(0-∞) [1, 4]: 15509.49 ng·h/mL and 16010.05 ng·h/mL | Cmax [1, 4]: 1505.63 ng/mL and 2299.65 ng/mL | t1/2 [1, 4]: 2.82 h and 2.98 h | AUC(0-inf) [1, 5]: 5480 ng·h/mL | half-life [1, 5]: 2.62 h | Cmax ([1]; male, Sprague Dawley, rat, plasma, iv, 2.5 mg/kg, IV 2.5 mg/kg, individual animals R 1-R 3, read-out: Cmax): 2700 ng/mL | AUC(0-inf) [1, 6]: 5510 ng·h/mL | half-life [1, 6]: 2.81 h | AUC(0-t) ([1]; male, Sprague Dawley, rat, plasma, iv, 2.5 mg/kg, IV 2.5 mg/kg, mean (n=3), read-out: AUC(0-t)): 5400 ng·h/mL | Cmax ([1]; male, Sprague Dawley, rat, plasma, iv, 2.5 mg/kg, IV 2.5 mg/kg, mean (n=3), read-out: Cmax): 2710 ng/mL | bioavailability ([1]; male, Sprague Dawley, rat, plasma, po, 10 mg/kg, PO 10 mg/kg vs IV 2.5 mg/kg, individual animals R 4-R 6, read-out: F % (bioavailability)): 79.4% | bioavailability ([1]; male, Sprague Dawley, rat, plasma, po, 10 mg/kg, PO 10 mg/kg vs IV 2.5 mg/kg, mean (n=3), read-out: F % (bioavailability)): 74.1% | AUC(0-inf) [1, 7]: 17500 ng·h/mL | half-life [1, 7]: 2.88 h | AUC(0-t) ([1]; male, Sprague Dawley, rat, plasma, po, 10 mg/kg, PO 10 mg/kg, fasted, individual animals R 4-R 6, read-out: AUC(0-t)): 17400 ng·h/mL | Cmax ([1]; male, Sprague Dawley, rat, plasma, po, 10 mg/kg, PO 10 mg/kg, fasted, individual animals R 4-R 6, read-out: Cmax): 2540 ng/mL | AUC(0-inf) [1, 8]: 16300 ng·h/mL | half-life [1, 8]: 2.89 h | AUC(0-t) ([1]; male, Sprague Dawley, rat, plasma, po, 10 mg/kg, PO 10 mg/kg, fasted, mean (n=3), read-out: AUC(0-t)): 16300 ng·h/mL | Cmax ([1]; male, Sprague Dawley, rat, plasma, po, 10 mg/kg, PO 10 mg/kg, fasted, mean (n=3), read-out: Cmax): 2110 ng/mL | tumor growth inhibition ([2]; 10 mg/kg p.o. once a day (q.d.)): 58% | tumor growth inhibition ([2]; 30 mg/kg p.o. twice a day (b.i.d.)): 70% | significance of tumor growth inhibition ([2]; 40 mg/kg (q.d.) and 30 mg/kg (b.i.d.), from Day 4, p<0.05): statistically significant tumor growth inhibition | tumor growth inhibition ([2]; 40 mg/kg p.o. once a day (q.d.)): 66% | significance of tumor growth inhibition ([2]; all doses (10, 40 mg/kg q.d., 30 mg/kg b.i.d.), from Day 6, p<0.05): statistically significant tumor growth inhibition
